The values that follow come from ChEMBL document CHEMBL3091428, “Synthesis and initial biological evaluation of substituted 1-phenylamino-2-thio-4,5-dimethyl-1H-imidazole derivatives” (Bioorg Med Chem Lett, 2013).

Data set [1] can be described thus: Toxicity in brine shrimp larvae assessed as mortality after 24 hrs. It is filed as organism-based. Conditions: artemia salina, in vivo.
Data set [2] has as its system Artemia salina. Description: Toxicity in brine shrimp larvae assessed as mortality at 50 ug/ml after 24 hrs. It is filed as organism-based. Conditions: in vivo.
For data set [3], the system named is Artemia salina. Description: Toxicity in brine shrimp larvae assessed as mortality at 100 ug/ml after 24 hrs. It is filed as organism-based. Conditions: in vivo.
For data set [4], the system named is Artemia salina. Description: Toxicity in brine shrimp larvae assessed as mortality at 800 ug/ml after 24 hrs. The format is organism-based. As to conditions: in vivo.
Data set [5] has as its system Artemia salina. Description: Toxicity in brine shrimp larvae assessed as mortality at 1600 ug/ml after 24 hrs. As to conditions: in vivo. The format is organism-based.
The subject of a further data set is Pichia kudriavzevii. Description: Antimicrobial activity against Candida krusei ATCC 6258 after 24 hrs by broth microdilution method. The format is functional. As to conditions: ATCC 6258, 24 h. In general terms: In broth dilution the organism is exposed to a series of concentrations in liquid medium.
The next data set deals with Nakaseomyces glabratus. Nature of the data set: Antimicrobial activity against Candida glabrata ATCC 90030 after 24 hrs by broth microdilution method. It is filed as functional. As to conditions: ATCC 90030, 24 h.
Another data set has as its system Listeria monocytogenes. Description: Antimicrobial activity against Listeria monocytogenes ATCC 19115 after 24 hrs by broth microdilution method. It is filed as functional. Conditions: ATCC 19115, 24 h.
The next data set deals with Candida albicans. Nature of the data set: Antimicrobial activity against Candida albicans ATCC 90028 after 24 hrs by broth microdilution method. It is filed as functional. Conditions: ATCC 90028, 24 h.
The next data set deals with Staphylococcus aureus. Nature of the data set: Antimicrobial activity against Staphylococcus aureus ATCC 25923 after 24 hrs by broth microdilution method. As to conditions: ATCC 25923, 24 h. It is filed as functional.
The subject of data set [6] is Enterococcus faecalis. Description: Antimicrobial activity against Enterococcus faecalis ATCC 51299 after 24 hrs by broth microdilution method. The format is functional. As to conditions: ATCC 51299, 24 h.
For data set [7], the system named is Enterococcus faecalis. Nature of the data set: Antimicrobial activity against Enterococcus faecalis ATCC 29212 after 24 hrs by broth microdilution method. The format is functional. Conditions: ATCC 29212, 24 h.
The subject of a further data set is Pseudomonas aeruginosa. Nature of the data set: Antimicrobial activity against Pseudomonas aeruginosa ATCC 27853 after 24 hrs by broth microdilution method. It is filed as functional. Conditions: ATCC 27853, 24 h.
Another data set has as its system Klebsiella pneumoniae. Description: Antimicrobial activity against Klebsiella pneumoniae ATCC 13883 after 24 hrs by broth microdilution method. It is filed as functional. As to conditions: ATCC 13883, 24 h.
Data set [8] deals with Escherichia coli. Description: Antimicrobial activity against Escherichia coli ATCC 25922 after 24 hrs by broth microdilution method. It is filed as functional. Conditions: ATCC 25922, 24 h.
Data set [9] concerns Escherichia coli. Nature of the data set: Antimicrobial activity against Escherichia coli ATCC 35218 after 24 hrs by broth microdilution method. As to conditions: ATCC 35218, 24 h. It is filed as functional.
In data set [10] the test system is Artemia salina. Nature of the data set: Toxicity in brine shrimp larvae assessed as mortality at 400 ug/ml after 24 hrs. It is filed as organism-based. Conditions: in vivo.
Data set [11] concerns Artemia salina. Description: Toxicity in brine shrimp larvae assessed as mortality at 200 ug/ml after 24 hrs. The format is organism-based. As to conditions: in vivo.

Each structure is given as a SMILES string. In brackets after ≈: the same amount, converted by molar mass.

Turning to `Cc1nc(SCC(=O)c2ccc(F)c(F)c2)n(Nc2ccc(Cl)cc2)c1C`, the LC50 at 24 h in data set [1] came out at 359 µg/mL (≈ 881 µM). The Activity entry in the data set on Artemia salina [2] is given as “Non-toxic”; with Artemia salina [3], “Non-toxic”; with Artemia salina [4], “Toxic”; in the data set with Artemia salina [5] it was “Toxic”. For the same compound, the minimal inhibitory concentration (MIC) in the data set on Pichia kudriavzevii is 100 µg/mL (≈ 245 µM); against Nakaseomyces glabratus it was 100 µg/mL (≈ 245 µM); in the data set on Listeria monocytogenes, 50 µg/mL (≈ 123 µM); against Candida albicans, 50 µg/mL (≈ 123 µM); in the data set with Staphylococcus aureus it was 400 µg/mL (≈ 981 µM); in the data set on Enterococcus faecalis [6] it was 400 µg/mL (≈ 981 µM). Further, the MIC in the data set on Enterococcus faecalis [7] worked out at 50 µg/mL (≈ 123 µM); with Pseudomonas aeruginosa, 400 µg/mL (≈ 981 µM); against Klebsiella pneumoniae, 400 µg/mL (≈ 981 µM); against Escherichia coli [8], 400 µg/mL (≈ 981 µM); in the data set on Escherichia coli [9], 800 µg/mL (≈ 1960 µM).
As for `Cc1nc(SCC(=O)c2ccc(F)c(F)c2)n(Nc2ccccc2)c1C`, the median lethal concentration (LC50) at 24 h in data set [1] came out at 465 µg/mL (≈ 1250 µM). The MIC amounted to 200 µg/mL (≈ 536 µM) with Pichia kudriavzevii; 400 µg/mL (≈ 1070 µM) in the data set on Nakaseomyces glabratus; 50 µg/mL (≈ 134 µM) against Listeria monocytogenes; 400 µg/mL (≈ 1070 µM) against Candida albicans; 100 µg/mL (≈ 268 µM) in the data set with Staphylococcus aureus; 400 µg/mL (≈ 1070 µM) with Enterococcus faecalis [6]. Also, the MIC in the data set with Enterococcus faecalis [7] was 25 µg/mL (≈ 66.9 µM); against Pseudomonas aeruginosa, 400 µg/mL (≈ 1070 µM); with Klebsiella pneumoniae, 400 µg/mL (≈ 1070 µM); against Escherichia coli [8] it was 400 µg/mL (≈ 1070 µM); with Escherichia coli [9] it was 400 µg/mL (≈ 1070 µM).
`COc1ccc(C(=O)CSc2nc(C)c(C)n2Nc2ccc(C)cc2)cc1`: the 50% lethal concentration (LC50) at 24 h in [1] was 153 µg/mL (≈ 400 µM). Moreover, the Activity result in the data set on Artemia salina [10], in the data set on Artemia salina [4] and with Artemia salina [5] was “Toxic” in each case. Moreover, the minimum inhibitory concentration (MIC) against Pichia kudriavzevii amounted to 25 µg/mL (≈ 65.5 µM); in the data set on Nakaseomyces glabratus, 100 µg/mL (≈ 262 µM); against Listeria monocytogenes, 50 µg/mL (≈ 131 µM); in the data set on Candida albicans, 25 µg/mL (≈ 65.5 µM); in the data set with Staphylococcus aureus it was 400 µg/mL (≈ 1050 µM); in the data set on Enterococcus faecalis [6], 400 µg/mL (≈ 1050 µM). Further, the MIC against Enterococcus faecalis [7] is 25 µg/mL (≈ 65.5 µM); in the data set on Pseudomonas aeruginosa, 400 µg/mL (≈ 1050 µM); in the data set with Klebsiella pneumoniae it was 400 µg/mL (≈ 1050 µM); against Escherichia coli [8], 100 µg/mL (≈ 262 µM); with Escherichia coli [9] it was 400 µg/mL (≈ 1050 µM).
Turning to `COc1ccc(C(=O)CSc2nc(C)c(C)n2Nc2ccc(C)cc2)cc1OC`, in [1], the LC50 at 24 h amounted to 1310 µg/mL (≈ 3180 µM). For the same compound, the Activity entry with Artemia salina [2], in the data set on Artemia salina [3] and with Artemia salina [11] was “Non-toxic” throughout. Moreover, the minimal inhibitory concentration (MIC) with Pichia kudriavzevii was 50 µg/mL (≈ 121 µM); in the data set with Nakaseomyces glabratus it was 100 µg/mL (≈ 243 µM); in the data set with Listeria monocytogenes it was 50 µg/mL (≈ 121 µM); against Candida albicans it was 100 µg/mL (≈ 243 µM); against Staphylococcus aureus, 400 µg/mL (≈ 972 µM); in the data set on Enterococcus faecalis [6], 400 µg/mL (≈ 972 µM). The minimum inhibitory concentration (MIC) in the data set on Enterococcus faecalis [7] worked out at 100 µg/mL (≈ 243 µM); against Pseudomonas aeruginosa, 400 µg/mL (≈ 972 µM); with Klebsiella pneumoniae, 400 µg/mL (≈ 972 µM); against Escherichia coli [8], 200 µg/mL (≈ 486 µM); with Escherichia coli [9] it was 200 µg/mL (≈ 486 µM).

Usually LC50 stands for the concentration lethal to half of the exposed cells or organisms. The term MIC denotes the smallest concentration in the dilution series that meets the test's criterion for growth inhibition. Read a low MIC as a more susceptible organism.
